{"source": "patent US20040220268A1", "about": "“Compound that directly stimulates phospholipase C activity” (priority 2003, published 2004)", "key": {"[1]": {"target": "PLC β2 (Homo sapiens, UniProt Q00722)", "sequence (Q00722 whole entry, species assumed)": "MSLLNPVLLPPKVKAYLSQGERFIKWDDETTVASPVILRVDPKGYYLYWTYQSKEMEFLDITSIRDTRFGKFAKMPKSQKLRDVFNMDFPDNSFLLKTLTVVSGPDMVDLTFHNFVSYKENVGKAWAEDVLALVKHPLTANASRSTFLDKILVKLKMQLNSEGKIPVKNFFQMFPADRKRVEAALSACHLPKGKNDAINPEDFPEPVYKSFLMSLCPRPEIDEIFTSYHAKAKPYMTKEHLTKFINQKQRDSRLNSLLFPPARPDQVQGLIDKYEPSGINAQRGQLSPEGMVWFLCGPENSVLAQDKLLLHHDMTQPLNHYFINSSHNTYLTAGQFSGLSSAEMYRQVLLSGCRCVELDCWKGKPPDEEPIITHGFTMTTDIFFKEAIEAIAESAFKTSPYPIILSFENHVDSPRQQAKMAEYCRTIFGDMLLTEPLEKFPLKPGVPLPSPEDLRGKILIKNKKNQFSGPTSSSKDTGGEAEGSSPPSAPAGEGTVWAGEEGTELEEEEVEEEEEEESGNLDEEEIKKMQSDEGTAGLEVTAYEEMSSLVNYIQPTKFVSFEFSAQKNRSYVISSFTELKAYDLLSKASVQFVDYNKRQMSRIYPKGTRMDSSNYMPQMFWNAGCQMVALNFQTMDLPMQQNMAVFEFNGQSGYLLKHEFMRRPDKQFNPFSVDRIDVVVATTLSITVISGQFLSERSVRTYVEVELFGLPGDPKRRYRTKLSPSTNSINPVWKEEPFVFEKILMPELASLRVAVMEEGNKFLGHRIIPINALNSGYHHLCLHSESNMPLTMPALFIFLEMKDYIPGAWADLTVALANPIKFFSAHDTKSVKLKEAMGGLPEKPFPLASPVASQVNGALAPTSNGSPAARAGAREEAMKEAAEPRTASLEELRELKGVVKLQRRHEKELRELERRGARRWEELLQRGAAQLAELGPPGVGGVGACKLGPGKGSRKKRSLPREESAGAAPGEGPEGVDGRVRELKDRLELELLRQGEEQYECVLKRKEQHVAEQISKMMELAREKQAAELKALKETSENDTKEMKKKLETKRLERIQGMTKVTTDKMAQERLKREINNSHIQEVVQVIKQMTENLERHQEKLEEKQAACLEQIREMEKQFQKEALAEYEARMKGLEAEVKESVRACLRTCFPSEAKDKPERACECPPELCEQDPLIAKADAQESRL", "test": "Phosphoinositide hydrolysis in vitro", "type": "biochemical", "method": "(§1) The hydrolyzing activity of PtdIns-4,5-P2 was measured on mixed phospholipid vesicles containing 120 μM phosphatidylethanolamine, 30 μM PtdIns-4,5-P2, and 1 μCi/ml [3H] PtdIns-4,5-P2. Purified PLC β2, substrates, and the chemicals (2.5, 5, 10, 20, and 25 μM of m-3M3FBS or of o-3M3FBS) were coincubated (A), 25 μM of m-3M3FBS or o-3M3FBS, and phospholipid substrates were mixed with purified PLC β3, γ1, 2, or δ1 (B). Reactions were performed for 10 min at 37° C. in a 200 μl reaction mixture containing lipid micelles (5 μM [^3H] PtdIns-4,5-P2, 20,000 cpm). Reactions were stopped by adding 1 ml of CHCl3:CH3OH:HCl (50:50:0.3, v/v/v). Inositol trisphosphates were extracted with 0.5 ml of 1 M HCl/5 mM EGTA, and the radioactivity in the upper aqueous phase was measured. Data are presented as means ±S. E. M. of three independent experiments (A, B).\n(§2) PLC activity was assayed using [^3H] PtdIns-4,5-P2 as a substrate (Min et al., 1993). PtdIns-4,5-P2-hydrolyzing activity was measured with mixed phospholipid micelles containing 120 μM phosphatidylethanolamine, 30 μM PtdIns-4,5-P2, and 1 μCi/ml [^3H] PtdIns-4,5-P2. The lipids, in chloroform, were dried under a stream of nitrogen gas, suspended in assay buffer (20 mM HEPES pH 7.0, 120 mM NaCl, 2 mM MgCl2, 40 or 100 μM CaCl2, and 1 mg/ml bovine albumin serum (Bayer, Leverkusen, Germany)), and sonicated. All proteins added to the reaction mixture were dialyzed overnight against the assay buffer. Incubation was performed for 10 min at 37° C. in a 200 μl reaction mixture containing lipid micelles (5 μM [3H] PtdIns-4,5-P2, 20,000 cpm). The reaction was stopped by adding 2 ml of CHCl3: CH3OH: HCl (50: 50: 0.3, v/v/v). The inositol triphosphates were extracted with 0.5 ml of 1 N HCl, and radioactivities in the upper aqueous phase were measured."}, "[2]": {"target": "T1, PLC γ1 (Homo sapiens, UniProt P19174)", "T1 sequence (P19174 1-1290)": "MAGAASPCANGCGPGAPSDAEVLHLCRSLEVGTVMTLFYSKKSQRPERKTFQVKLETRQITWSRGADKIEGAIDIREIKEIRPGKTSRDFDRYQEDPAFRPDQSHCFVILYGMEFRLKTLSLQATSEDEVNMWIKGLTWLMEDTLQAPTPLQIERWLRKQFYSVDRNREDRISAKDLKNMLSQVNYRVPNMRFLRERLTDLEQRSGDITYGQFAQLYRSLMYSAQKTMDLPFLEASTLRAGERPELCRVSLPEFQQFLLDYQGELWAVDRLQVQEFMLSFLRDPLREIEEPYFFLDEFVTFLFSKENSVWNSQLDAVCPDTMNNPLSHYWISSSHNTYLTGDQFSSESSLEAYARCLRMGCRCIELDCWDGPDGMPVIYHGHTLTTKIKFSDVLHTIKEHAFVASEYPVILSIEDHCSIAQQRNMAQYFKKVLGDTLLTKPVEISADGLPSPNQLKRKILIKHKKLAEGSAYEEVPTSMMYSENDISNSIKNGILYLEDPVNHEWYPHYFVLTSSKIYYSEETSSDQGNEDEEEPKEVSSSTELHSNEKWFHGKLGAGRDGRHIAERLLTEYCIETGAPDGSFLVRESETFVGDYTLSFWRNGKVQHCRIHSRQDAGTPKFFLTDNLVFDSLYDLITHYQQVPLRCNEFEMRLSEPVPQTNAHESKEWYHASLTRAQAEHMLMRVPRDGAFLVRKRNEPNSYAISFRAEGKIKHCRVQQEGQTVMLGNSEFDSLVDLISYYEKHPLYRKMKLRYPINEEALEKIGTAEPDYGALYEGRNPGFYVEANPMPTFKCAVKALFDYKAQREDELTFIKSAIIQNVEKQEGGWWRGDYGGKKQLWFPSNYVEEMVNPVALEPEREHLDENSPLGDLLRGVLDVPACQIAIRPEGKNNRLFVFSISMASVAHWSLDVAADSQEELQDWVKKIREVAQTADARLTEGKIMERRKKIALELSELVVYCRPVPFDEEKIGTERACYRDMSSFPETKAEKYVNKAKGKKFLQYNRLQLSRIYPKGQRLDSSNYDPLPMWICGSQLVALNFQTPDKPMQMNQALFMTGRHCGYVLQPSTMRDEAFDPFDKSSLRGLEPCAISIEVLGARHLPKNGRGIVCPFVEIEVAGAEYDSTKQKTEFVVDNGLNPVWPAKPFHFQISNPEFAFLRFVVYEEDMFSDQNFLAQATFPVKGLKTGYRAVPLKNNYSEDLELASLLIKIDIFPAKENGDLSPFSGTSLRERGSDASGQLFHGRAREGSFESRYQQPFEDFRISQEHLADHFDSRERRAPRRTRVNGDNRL", "test": "Phosphoinositide hydrolysis in vitro", "type": "biochemical", "settings": "25 μM; purified isozyme", "method": "as §1, §2"}}}
{"molecule": "Cc1cc(C)c(S(=O)(=O)Nc2ccccc2C(F)(F)F)c(C)c1", "note": "[o-3M3FBS, 2,4,6-Trimethyl-N-(ortho 3-trifluoromethyl-phenyl)-benzenesulfonamide, reference compound]", "values": [{"measurement": "effect on PIP2-hydrolyzing activity of PLC β2", "setting": "[1]; at 10 μM or higher concentrations (up to 25 μM)", "value": "no effect"}, {"measurement": "activity of PLC gamma1", "setting": "[2]", "value": "did not affect"}]}
{"molecule": "Cc1cc(C)c(S(=O)(=O)Nc2cccc(C(F)(F)F)c2)c(C)c1", "note": "[m-3M3FBS, 2,4,6-Trimethyl-N-(meta 3-trifluoromethyl-phenyl)-benzenesulfonamide]", "values": [{"measurement": "in vitro PLCβ2 activity", "setting": "[1]; [3H] PtdIns as substrate, data not shown", "value": "significantly increased"}, {"measurement": "concentration at which PIP2-hydrolyzing activity of PLC β2 was enhanced", "setting": "[1]; [3H] PtdIns-4,5-P2 substrate", "value": "exceeding 10 μM"}, {"measurement": "effect on PIP2-hydrolyzing activity of PLC β2", "setting": "[1]; low doses (ca., 2.5 and 5 μM), [3H] PtdIns-4,5-P2 substrate", "value": "no effect"}, {"measurement": "activity of PLC gamma1", "setting": "[2]", "value": "augmented the activity"}]}
